Data from the CheMixHub viscosity set.
± gives the uncertainty stated by the source.

Assay: xn = mol fraction of the nth substance listed

NC=O + CO showed a viscosity (298.15 K, 100 kPa, x1 = 0.04242) of 0.594 ± 0.013 mPa·s, a viscosity (298.15 K, 100 kPa, x1 = 0.1098) of 0.672 ± 0.014 mPa·s and a viscosity (298.15 K, 100 kPa, x1 = 0.1552) of 0.728 ± 0.016 mPa·s. It also gave a viscosity (298.15 K, 100 kPa, x1 = 0.1966) of 0.784 ± 0.017 mPa·s, a viscosity (298.15 K, 100 kPa, x1 = 0.2342) of 0.843 ± 0.018 mPa·s and a viscosity (298.15 K, 100 kPa, x1 = 0.3571) of 1.06 ± 0.02 mPa·s. For the same compound, the viscosity (298.15 K, 100 kPa, x1 = 0.4211) was 1.2 ± 0.03 mPa·s, the viscosity (298.15 K, 100 kPa, x1 = 0.4775) was 1.33 ± 0.03 mPa·s and the viscosity (298.15 K, 100 kPa, x1 = 0.5097) was 1.42 ± 0.03 mPa·s. It also gave a viscosity (298.15 K, 100 kPa, x1 = 0.5776) of 1.6 ± 0.03 mPa·s, a viscosity (298.15 K, 100 kPa, x1 = 0.6744) of 1.9 ± 0.04 mPa·s and a viscosity (298.15 K, 100 kPa, x1 = 0.7135) of 2.03 ± 0.04 mPa·s. The viscosity (298.15 K, 100 kPa, x1 = 0.8191) was 2.45 ± 0.05 mPa·s, the viscosity (298.15 K, 100 kPa, x1 = 0.8522) was 2.6 ± 0.06 mPa·s and the viscosity (298.15 K, 100 kPa, x1 = 0.9099) was 2.86 ± 0.06 mPa·s. The viscosity (298.15 K, 101 kPa, x1 = 0.1) was 0.746 ± 0.008 mPa·s, the viscosity (298.15 K, 101 kPa, x1 = 0.2) was 0.861 ± 0.012 mPa·s and the viscosity (298.15 K, 101 kPa, x1 = 0.3) was 1.055 ± 0.019 mPa·s. It also gave a viscosity (298.15 K, 101 kPa, x1 = 0.3966) of 1.247 ± 0.026 mPa·s, a viscosity (298.15 K, 101 kPa, x1 = 0.4978) of 1.484 ± 0.037 mPa·s and a viscosity (298.15 K, 101 kPa, x1 = 0.6) of 1.749 ± 0.049 mPa·s. The viscosity (298.15 K, 101 kPa, x1 = 0.7) was 2.067 ± 0.066 mPa·s, the viscosity (298.15 K, 101 kPa, x1 = 0.7988) was 2.431 ± 0.086 mPa·s and the viscosity (298.15 K, 101 kPa, x1 = 0.902) was 2.874 ± 0.11 mPa·s. For the same compound, the viscosity (303.15 K, 101.3 kPa, x1 = 0.0714) was 0.55 ± 0.05 mPa·s, the viscosity (303.15 K, 101.3 kPa, x1 = 0.1586) was 0.63 ± 0.05 mPa·s and the viscosity (303.15 K, 101.3 kPa, x1 = 0.2422) was 0.74 ± 0.05 mPa·s. For the same compound, the viscosity (303.15 K, 101.3 kPa, x1 = 0.32) was 0.85 ± 0.05 mPa·s, the viscosity (303.15 K, 101.3 kPa, x1 = 0.3836) was 0.95 ± 0.05 mPa·s and the viscosity (303.15 K, 101.3 kPa, x1 = 0.5273) was 1.2 ± 0.1 mPa·s. The viscosity (303.15 K, 101.3 kPa, x1 = 0.5975) was 1.4 ± 0.1 mPa·s, the viscosity (303.15 K, 101.3 kPa, x1 = 0.6822) was 1.6 ± 0.1 mPa·s and the viscosity (303.15 K, 101.3 kPa, x1 = 0.7619) was 1.8 ± 0.1 mPa·s. The viscosity (303.15 K, 101.3 kPa, x1 = 0.8279) was 2 ± 0.1 mPa·s, the viscosity (303.15 K, 101.3 kPa, x1 = 0.917) was 2.3 ± 0.1 mPa·s and the viscosity (308.15 K, 101.3 kPa, x1 = 0.0714) was 0.51 ± 0.05 mPa·s. For the same compound, the viscosity (308.15 K, 101.3 kPa, x1 = 0.1586) was 0.59 ± 0.05 mPa·s, the viscosity (308.15 K, 101.3 kPa, x1 = 0.2422) was 0.68 ± 0.05 mPa·s and the viscosity (308.15 K, 101.3 kPa, x1 = 0.32) was 0.78 ± 0.05 mPa·s. For the same compound, the viscosity (308.15 K, 101.3 kPa, x1 = 0.3836) was 0.87 ± 0.05 mPa·s, the viscosity (308.15 K, 101.3 kPa, x1 = 0.5273) was 1.1 ± 0.05 mPa·s and the viscosity (308.15 K, 101.3 kPa, x1 = 0.5975) was 1.2 ± 0.1 mPa·s. It also gave a viscosity (308.15 K, 101.3 kPa, x1 = 0.6822) of 1.4 ± 0.1 mPa·s, a viscosity (308.15 K, 101.3 kPa, x1 = 0.7619) of 1.6 ± 0.1 mPa·s and a viscosity (308.15 K, 101.3 kPa, x1 = 0.8279) of 1.8 ± 0.1 mPa·s. The viscosity (308.15 K, 101.3 kPa, x1 = 0.917) was 2.1 ± 0.1 mPa·s, the viscosity (313.15 K, 101 kPa, x1 = 0.1) was 0.584 ± 0.004 mPa·s and the viscosity (313.15 K, 101 kPa, x1 = 0.2) was 0.685 ± 0.006 mPa·s. For the same compound, the viscosity (313.15 K, 101 kPa, x1 = 0.3) was 0.818 ± 0.01 mPa·s, the viscosity (313.15 K, 101 kPa, x1 = 0.3966) was 0.995 ± 0.016 mPa·s and the viscosity (313.15 K, 101 kPa, x1 = 0.4978) was 1.116 ± 0.021 mPa·s. The viscosity (313.15 K, 101 kPa, x1 = 0.6) was 1.307 ± 0.029 mPa·s, the viscosity (313.15 K, 101 kPa, x1 = 0.7) was 1.538 ± 0.039 mPa·s and the viscosity (313.15 K, 101 kPa, x1 = 0.7988) was 1.78 ± 0.051 mPa·s. The viscosity (313.15 K, 101 kPa, x1 = 0.902) was 2.09 ± 0.067 mPa·s, the viscosity (313.15 K, 101.3 kPa, x1 = 0.0714) was 0.48 ± 0.05 mPa·s and the viscosity (313.15 K, 101.3 kPa, x1 = 0.1586) was 0.54 ± 0.05 mPa·s. For the same compound, the viscosity (313.15 K, 101.3 kPa, x1 = 0.2422) was 0.63 ± 0.05 mPa·s, the viscosity (313.15 K, 101.3 kPa, x1 = 0.32) was 0.72 ± 0.05 mPa·s and the viscosity (313.15 K, 101.3 kPa, x1 = 0.3836) was 0.8 ± 0.05 mPa·s. It also gave a viscosity (313.15 K, 101.3 kPa, x1 = 0.5273) of 1.02 ± 0.05 mPa·s, a viscosity (313.15 K, 101.3 kPa, x1 = 0.5975) of 1.1 ± 0.1 mPa·s and a viscosity (313.15 K, 101.3 kPa, x1 = 0.6822) of 1.3 ± 0.1 mPa·s. The viscosity (313.15 K, 101.3 kPa, x1 = 0.7619) was 1.4 ± 0.1 mPa·s, the viscosity (313.15 K, 101.3 kPa, x1 = 0.8279) was 1.6 ± 0.1 mPa·s and the viscosity (313.15 K, 101.3 kPa, x1 = 0.917) was 1.9 ± 0.1 mPa·s. For the same compound, the viscosity (318.15 K, 101.3 kPa, x1 = 0.0714) was 0.46 ± 0.05 mPa·s, the viscosity (318.15 K, 101.3 kPa, x1 = 0.1586) was 0.51 ± 0.05 mPa·s and the viscosity (318.15 K, 101.3 kPa, x1 = 0.2422) was 0.58 ± 0.05 mPa·s. For the same compound, the viscosity (318.15 K, 101.3 kPa, x1 = 0.32) was 0.67 ± 0.05 mPa·s, the viscosity (318.15 K, 101.3 kPa, x1 = 0.3836) was 0.73 ± 0.05 mPa·s and the viscosity (318.15 K, 101.3 kPa, x1 = 0.5273) was 0.92 ± 0.05 mPa·s. It also gave a viscosity (318.15 K, 101.3 kPa, x1 = 0.5975) of 1.01 ± 0.05 mPa·s, a viscosity (318.15 K, 101.3 kPa, x1 = 0.6822) of 1.1 ± 0.1 mPa·s and a viscosity (318.15 K, 101.3 kPa, x1 = 0.7619) of 1.3 ± 0.1 mPa·s. It also gave a viscosity (318.15 K, 101.3 kPa, x1 = 0.8279) of 1.4 ± 0.1 mPa·s, a viscosity (318.15 K, 101.3 kPa, x1 = 0.917) of 1.6 ± 0.1 mPa·s and a viscosity (323.15 K, 101.3 kPa, x1 = 0.0714) of 0.42 ± 0.05 mPa·s. The viscosity (323.15 K, 101.3 kPa, x1 = 0.1586) was 0.47 ± 0.05 mPa·s, the viscosity (323.15 K, 101.3 kPa, x1 = 0.2422) was 0.54 ± 0.05 mPa·s and the viscosity (323.15 K, 101.3 kPa, x1 = 0.32) was 0.6 ± 0.05 mPa·s. It also gave a viscosity (323.15 K, 101.3 kPa, x1 = 0.3836) of 0.66 ± 0.05 mPa·s, a viscosity (323.15 K, 101.3 kPa, x1 = 0.5273) of 0.8 ± 0.05 mPa·s and a viscosity (323.15 K, 101.3 kPa, x1 = 0.5975) of 0.86 ± 0.05 mPa·s. It also gave a viscosity (323.15 K, 101.3 kPa, x1 = 0.6822) of 0.96 ± 0.05 mPa·s, a viscosity (323.15 K, 101.3 kPa, x1 = 0.7619) of 1.07 ± 0.05 mPa·s and a viscosity (323.15 K, 101.3 kPa, x1 = 0.8279) of 1.2 ± 0.1 mPa·s. The viscosity (323.15 K, 101.3 kPa, x1 = 0.917) was 1.3 ± 0.1 mPa·s.
